Laboratory results reported in patent publication US20180127681A1, “GLYCOSYLATED AROMA- AND FRAGRANCE PRECURSORS AND FRAGRANCE PRODUCTS THAT CAN BE ACTIVATED” (Technische University Muenchen, priority 2015, published 2018).
Where “and” joins values, the source holds several entries; their conditions need not be identical. Equal values may be shown once.

Legend:
[1] = Baking tests, dough of three kinds of bread with 100 ppm geranyl glucoside (summary); type: physicochemical
Description: The proof-of-principle was now shown successfully for the example bread. Dough from three different kinds of bread was treated with the aroma precursor geranyl glucoside. […] This conversion is ascribed to the biggest extent to pyrolytic processes (about 5%) during the ten-minute baking process at 230° C. and partly on the enzyme-catalyzed hydrolytic processes (about […]) during the preparation of yeast-ß-glucosidase.

[2] = Baking test 1, flour dough, release of geraniol by GC-MS; type: physicochemical; details: for conversion of GG to geraniol, mean value: triplicate, from 3.2 μmol GG in 17 g bread
Excerpt: Dough blanks of 10 g flour each were used as base. A negative control (flour, salt and water), three samples (added geranyl glucoside), a recovery (addition of geraniol to the bread prior to freezing according to a postulated conversion of glucoside of about 6% in order to determine the losses during the analytical process) and a control for geraniol in the glucoside solution (addition of an aliquot amount of glucoside only after the baking process to determine the content of geraniol). Several process steps are carried out according to standardized instructions, for each of the six blanks separately.
For a blank/blind test (1) 9.98 g well-mixed flour were weighed into a glass vessel and 0.2 g NaCl were added. The mixture was at first mixed in a dry state for 1 min in a farinograph (=kneader) and kneaded for 8 min after pipetting 6.4 ml dist. water. The dough was taken out quickly and weighed for a first time (E1). A first fermenting period of […] at 31° C. took place in a water vapor saturated proofing cabinet. After taking the dough out of the cabinet a second weighing (E2) took place as well as the homogenization. The ball-shaped blank was put into a round molder (“Rundwirker”) and turned for 10 turns with a superimposed pestle. It was drawn through a pasta/noodle roller, folded two times without inclusion of air and again turned in the round molder for 20 turns. Finally a forming by hand was performed. After the homogenization a second fermentation period of 35 min follows.
For samples (2a-c) additionally 10 μl of a geranyl glucoside (GG) solution (c=98 mg/ml) were quickly pipetted after the addition of water into the kneader.
Baking took place on a tray in the oven for 10 min at 230° C. Before and after putting the samples vapor was put into the closed oven, respectively (spraying and evaporating of 25 ml dist. H2O).
The baked bread was left standing for 60 min at room temperature and subsequently frozen in liquid nitrogen. Storage of the breads took place at −18° C. until the conditioning/preparation. […]

[3] = Baking test 2, simple yeast dough, release of geraniol by GC-MS; type: physicochemical
Description: (§1) As samples dough blanks of 10 g flour each were used. A negative control (flour, salt, sugar, yeast and water), three samples (additionally geranyl glucoside) and a recovery (addition of geraniol to the bread before freezing according to a postulated conversion of glucoside of 6% in order to determine losses during the analytical procedure) were used. Several process steps were carried out according to standardized specifications, separate for each of the five blanks.
For a blank/blind test (i) 9.98 g well-mixed flour were weighed into a glass vessel. 0.2 g NaCl and 0.1 g sucrose were added and the mixture was put in the kneader. An addition of 0.7 g (cooled) baking yeast directly to the kneader followed. The mixture was at first kneaded in a dry state for 1 min and kneaded for 8 min after pipetting 6.3 ml dist. H2O. All further steps including the work-up and sample taking ware carried out according to the sample with flour dough (1). In the samples (2a-c) 10 μl GG-solution were pipetted directly after the addition of water to the kneader. The preparation of the recovery (3) was carried out analogous to the blind sample. After cooling for one hour 170 μl geraniol solution were injected herein into the breadcrumb directly before freezing with liquid nitrogen.

[4] = Baking test 3, standard yeast dough, release of geraniol by GC-MS; type: physicochemical
Description: as §1, with “fat, yeast, L-ascorbic acid” for “yeast”
For a blank/blind test (i) 9.98 g well-mixed flour were weighed into a glass vessel. 0.2 g NaCl and 0.1 g sucrose and 0.1 g palm fat were added and the mixture was put in the kneader. An addition of 0.7 g (cooled) baking yeast directly to the kneader followed. The mixture was at first kneaded in a dry state for 1 min and kneaded for 8 min after pipetting 6.0 ml dist. H2O and 0.3 ml ascorbic acid solution.
All further steps including the work-up and sample taking ware carried out according to the sample with flour dough (1). In the samples (2a-c) 10 μl GG-solution were pipetted directly after the addition of water and ascorbic acid solution to the kneader. The preparation of the recovery (3) was carried out analogous to the blind sample. After cooling for one hour 170 μl geraniol solution were injected herein into the breadcrumb directly before freezing with liquid nitrogen.

FaGTs1-13 = assay: In vitro glycosyltransferase assay with 14C UDP-glucose, substrates of FaGTs1-13; type: biochemical, Fragaria x ananassa; details: FaGTs1-13, FIG. 11B, 1 h at 30° C.
Excerpt: In the search for efficient biocatalysts which can be particularly used for the production of aroma glycosides the UGT gene family of plant species Vitis vinifera (grape vine) and Fragaria x ananassa (strawberry) was examined. For this at first the gene sequences were searched that are strongly expressed in the fruits of the plant species. These were subsequently isolated, expressed in the host organism Escherichia coli, and the enzymatic activity toward different potential substrates was determined. At least three of the coding nucleic acid sequences (FaGTs1-5, FaGTs1-13 and VvdGT13, see appended sequences) catalyze the formation of aroma glycosides very efficiently.
In FIG. 11 the determination of the enzyme activity of FaGTs1-5 and FaGTs1-13 is shown.
The reaction was started by adding UDP-glucose and stopped after incubation with 1 ml n-butanol. After vortexing for at least 15 s the reaction mixture was centrifuged 2 min at 12 000×g for separation of the phases, and 800 μl of the upper organic phase containing the product were now transferred to 2 ml scintillation cocktail (Ultima-Flo AF, PerkinElmer).

| content of geraniol in bread ([1]; 100 ppm added, conversion of 6%) [mg/kg] | conversion of glucoside to geraniol ([1]; addition of 100 ppm geranyl glucoside, ten-minute baking at 230° C.) | conversion ascribed to pyrolytic processes ([1]; ten-minute baking process at 230° C.) | content of geraniol in the baked bread [2] [mg/kg] | conversion of GG to geraniol, mean value [2] [%] | conversion of GG to geraniol, mean value ([2]; listed as GG) | content of geraniol in the bread [3] [mg/kg] | conversion of GG to geraniol, mean value ([3]; samples 2a and 2c only, from 3.2 μmol GG in 17 g bread) [%] | content of geraniol in the bread [4] [mg/kg] | conversion of GG to geraniol, mean value ([4]; triplicate, from 3.2 μmol GG in 17 g bread) [%] | conversion relative to furaneol (FaGTs1-13) [times] | Structure (SMILES) |
| --- | --- | --- | --- | --- | --- | --- | --- | --- | --- | --- | --- |
| 1.7 | about 6% | about 5% | 1.40 | 4.8 | 4.8% and 4.9% | 1.77 | 6.1 | 1.67 | 5.7 | – | CC(C)=CCC/C(C)=C/CO[C@@H]1O[C@H](CO)[C@@H](O)[C@H](O)[C@H]1O [geranyl glucoside] |
| – | – | – | – | – | – | – | – | – | – | 3 | CCC1OC(C)=C(O)C1=O (centres unmarked) [homofuraneol] |
